Data set [1] in a line: Cerebral vasodilating action: vertebral arterial flow, intra-arterial injection. Type of data set: in vivo. The following applies: Canis lupus familiaris; dogs, 1 mg intraarterially; read-out: Percent increase in vertebral arterial flow when injected intraarterially. The protocol:
A: Percent increase in vertebral arterial flow when injected
intraarterially (1 mg) to dogs.
(1) For the experimental evaluation of cerebral vasodilating action, the canine vertebral arterial preparation was used. The carotid arterial blood was led to the vertebral artery by a short extracorporeal loop. The vertebral arterial flow was measured by an electromagnetic flow transducer inserted in the circuit. The action of the compounds on the vertebral arterial flow was expressed by percent increase when 1 mg of each compound was injected intra-arterially.

Data set [2] in a line: Effects of intravenous injection on mean arterial pressure, heart rate and vertebral arterial flow in anesthetized dogs. The following applies: for change in vivo at 1 mg/kg: Canis lupus familiaris, iv, read-out: Percent increase in vertebral arterial flow when injected intravenously; for Changes in heart rate when injected intravenously / Changes in systemic blood pressure when injected intravenously: anesthetized dogs, 1 mg/kg intravenously.
Experimental: (§1) Pressure in the carotid artery was measured by a pressure transducer and mean arterial pressure was obtained by electrical integration. Heart rate was obtained by a cardiotachometer, triggered by a signal from the pressure pulse. The vertebral arterial flow was measured by fitting an electromagnetic flow transducer. The action on systemic mean arterial pressure, heart rate and vertebral arterial flow were represented by Δ mmHg, Δ beats/min and percent increase.

Data set [3] in a line: Inhibition of spontaneous nystagmus produced by unilateral destruction of the labyrinth (anti-vertigo action). As to conditions: cats; for inhibition at 12 mg/kg / inhibition at 6 mg/kg: Felis catus, iv, read-out: Effect of compounds on the nystagmus expressed as inhibitory percentage. In kind it is in vivo. Here is the method: (1) It is well known that vertigo resulting from the disturbance of the peripheral labyrinth is accompanied by nystagmus. So, we acutely produced the spontaneous nystagmus by unilateral destruction of the labyrinth in cats and used it as an experimental model of vertigo. a pair of Ag--AgCl cup electrodes was placed laterally to both orbits and an indifferent electrode on the forehead. The nystagmus was recorded through an amplifier. The inhibitory effect of the compounds on the nystagmus was expressed by [formula] where A is the frequency of the nystagmus in ten seconds before administration of the compounds and B is the frequency of the nystagmus at the maximum inhibitory point after administration. The duration of the effect was also measured. Compounds dissolved in saline were injected into the femoral vein. Betahistine and diphenidol were used as standard drugs.
A: Doses of compounds injected intraveneously.
B: Effect of compounds on the nystagmus expressed as inhibitory
C: Duration of the effect of compounds

The nature of data set [4]: Acute toxicity (LD50) by intraperitoneal injection. As to conditions: mouse, in vivo, ip. Here is the method: LD50 values of the compounds by intraperitoneal injection in mice were determined.
Data set [5] can be described thus: Effect on the hexobarbital-induced sleeping time. As to conditions: male mice, 50 mg/kg subcutaneously, 15 min prior to sodium hexobarbital i.p.
Experimental: (§2) Groups consisted of 10 male-mice were administered the compounds or saline subcutaneously 15 min. prior to an intraperitoneal injection of sodium hexobarbital. Sleeping time for each animal in a group was measured. The averaged value of sleeping time in each group was calculated. The action of the sleeping time was expressed by the percentage of the sleeping time in the compound-treated groups to that in the saline-treated group.
(§3) D: Sleeping time of the compound (50 mg/kg, subcutaneously)treated groups
(§4) expressd as percentage to that of the control group.
For data set [6] the following is noted: dog, in vivo, iv, 1 mg/kg.
Experimental: as §1
For data set [7] the following is noted: mouse, in vivo, 50 mg/kg.
Experimental: as §2, §3, §4
[8] abbreviates: 12 mg/kg injected intravenously.
Where [9] appears, read: male mice, intraperitoneal injection (Table 3).
The mark [10] stands for this setting: mice, intraperitoneal injection (Table 4).

As usually defined, the LD50 is the dose expected to kill half of the subjects tested. A lower LD50 goes with a more toxic substance.

Where two headings read alike, the source gives them in different places.

Consider `CCCCCCN1CCc2ncccc2C1` [Compound 8], for which the change in vivo at 1 mg in data set [1] came to 67%. In addition, in data set [2], the change in vivo at 1 mg/kg turned out to be 20.1%, the “Changes in heart rate when injected intravenously” value (“Changes in heart rate” for short) is reported as “+8 Δ beats/min” and the “Changes in systemic blood pressure when injected intravenously” value (from here on “Changes in systemic blood pressure”) is on record as -18.5 Δ mmHg. In data set [3] (setting [8]), the inhibition at 12 mg/kg worked out at 88% and the “Duration of the effect of compounds (nystagmus)” value (from here on “Duration”) is given as 10 min. In data set [4] (setting [9]), this molecule displayed an LD50 of 194 mg/kg.

Regarding `CCCCCCCN1CCc2ncccc2C1` [Compound 9], the change in vivo at 1 mg in data set [1] was determined as 78%. Also, in data set [2], the change in vivo at 1 mg/kg turned out to be 15.5%, the “Changes in heart rate” value is “+8 Δ beats/min” and the “Changes in systemic blood pressure” value is given as -20.0 Δ mmHg. In data set [3] (setting [8]), the inhibition at 12 mg/kg worked out at 79% and the “Duration” value was found to be 10 min. This molecule also came in with an LD50 in data set [4] (setting [9]) of 208 mg/kg.

For `C=CCN1CCc2ncccc2C1` [Compound 12, 5,6,7,8-tetrahydro-6-allyl-1,6-naphtyridine], the “Sleeping time of the compound treated groups expressed as percentage to that of the control group” value in data set [5] is 132.5%. Also, in data set [3] (6 mg/kg injected intravenously), the inhibition at 6 mg/kg was 90% and the “Duration” value was determined as 40 min. Moreover, in data set [3] (setting [8]), the inhibition at 12 mg/kg is 98% and the “Duration” value was found to be 50 min. The LD50 in data set [4] (setting [9]) was 208 mg/kg.

Take `c1cnc2c(c1)CN(CC1CC1)CC2` [Compound 22]: in data set [5], the “Sleeping time of the compound treated groups expressed as percentage to that of the control group” value was 114.4%. In addition, in data set [3] (6 mg/kg injected intravenously), the inhibition at 6 mg/kg worked out at 85% and the “Duration” value is recorded as 19 min. Moreover, in data set [3] (setting [8]), the inhibition at 12 mg/kg was determined as 98% and the “Duration” value stood at 35 min. The molecule also gave an LD50 in data set [4] (setting [9]) of 176 mg/kg.

In the case of `c1ccc(CN2CCc3ncccc3C2)cc1` [Compound 31], the change in vivo at 1 mg in data set [1] was found to be 90%. Besides, in data set [2], the change in vivo at 1 mg/kg turned out to be 36%, the “Changes in heart rate” value was “+16 Δ beats/min” and the “Changes in systemic blood pressure” value was -12.0 Δ mmHg. In addition, in data set [3] (setting [8]), the inhibition at 12 mg/kg came out at 57% and the “Duration” value is listed as 9 min. Moreover, the LD50 in data set [4] (setting [9]) came out at 262 mg/kg.

Consider `Cc1ccc(CN2CCc3ncccc3C2)cc1` [Compound 34], for which the change in vivo at 1 mg in data set [1] stood at 93%. For the same molecule, in data set [2], the change in vivo at 1 mg/kg stood at 18%, the “Changes in heart rate” value was “+8 Δ beats/min” and the “Changes in systemic blood pressure” value is reported as -10.0 Δ mmHg. The molecule also registered an LD50 in data set [4] (setting [10]) of 518 mg/kg.

As for `CC(C)c1cccc(CN2CCc3ncccc3C2)c1` [Compound 36], the change in vivo at 1 mg in data set [1] worked out at 100%. Moreover, in data set [2], the change in vivo at 1 mg/kg was determined as 22%, the “Changes in heart rate” value is “+8 Δ beats/min” and the “Changes in systemic blood pressure” value is listed as -20.0 Δ mmHg. In data set [4] (setting [10]), this molecule had an LD50 of 368 mg/kg.

Take `CC(C)c1ccc(CN2CCc3ncccc3C2)cc1` [Compound 37]: the change in vivo at 1 mg in data set [1] came to 110%. In addition, in data set [2], the change in vivo at 1 mg/kg was 33.3% and the “Changes in systemic blood pressure” value is reported as -13.3 Δ mmHg. The same molecule had an LD50 in data set [4] (setting [10]) of 300 mg/kg.

Regarding `Clc1ccc(CN2CCc3ncccc3C2)cc1Cl` [Compound 44], in data set [1], the change in vivo at 1 mg came to 107%. In data set [2], the change in vivo at 1 mg/kg came to 30.8%, the “Changes in heart rate” value is “+32 Δ beats/min” and the “Changes in systemic blood pressure” value is reported as -16.7 Δ mmHg. The same molecule came in with an LD50 in data set [4] (setting [10]) of 270 mg/kg.

In the case of `COc1ccc(CN2CCc3ncccc3C2)cc1OC` [Compound 46, 5,6,7,8-tetrahydro-6-(3,4-dimethoxybenzyl)-1,6-naphthyridine], the change in vivo at 1 mg in data set [1] was found to be 99%. Also, in data set [2], the change in vivo at 1 mg/kg was 50%, the “Changes in heart rate” value is on record as “+32 Δ beats/min” and the “Changes in systemic blood pressure” value is -27.2 Δ mmHg. The molecule also came in with an LD50 in data set [4] (setting [10]) of 262 mg/kg.

With `CCCOc1cc(CN2CCc3ncccc3C2)ccc1OC` [Compound 49], the change in vivo at 1 mg in data set [1] was determined as 93%. Moreover, the change in vivo at 1 mg/kg in data set [2] was found to be 21.2%. Besides, the LD50 in data set [4] (setting [10]) amounted to 174 mg/kg. In data set [6], the “Changes in heart rate” value is “+24 Δ beats/min” and the “Changes in systemic blood pressure” value is -11.6 Δ mmHg.

On to `CCCOc1ccc(CN2CCc3ncccc3C2)cc1OCCC` [Compound 50], for which the change in vivo at 1 mg in data set [1] is 79%. In data set [2], the change in vivo at 1 mg/kg stood at 30.6%. The molecule also showed an LD50 in data set [4] (setting [10]) of 200 mg/kg. In addition, in data set [6], the “Changes in heart rate” value is listed as “+16 Δ beats/min” and the “Changes in systemic blood pressure” value was -10.0 Δ mmHg.

Turning to `CCCCOc1ccc(CN2CCc3ncccc3C2)cc1OCCCC` [Compound 51], the change in vivo at 1 mg in data set [1] was 77%. The change in vivo at 1 mg/kg in data set [2] turned out to be 16.7%. In addition, in data set [6], the “Changes in heart rate” value is 0 Δ beats/min and the “Changes in systemic blood pressure” value was 0 Δ mmHg.

As for `C(=C\c1ccccc1)/CN1CCc2ncccc2C1` [Compound 58, 5,6,7,8-tetrahydro-6-cinnamyl-1,6-naphthyridine], the change in vivo at 1 mg in data set [1] was 81%. Also, in data set [2], the change in vivo at 1 mg/kg is 22.2%, the “Changes in heart rate” value is “+40 Δ beats/min” and the “Changes in systemic blood pressure” value is -13.3 Δ mmHg. In addition, in data set [3] (setting [8]), the inhibition at 12 mg/kg worked out at 53% and the “Duration” value came to 35 min. For the same molecule, the LD50 in data set [4] (setting [9]) stood at 263 mg/kg.

As for `Clc1ccc(C=CCN2CCc3ncccc3C2)c(Cl)c1` [Compound 70], in data set [1], the change in vivo at 1 mg worked out at 158%. Also, in data set [2], the change in vivo at 1 mg/kg was determined as 60%, the “Changes in heart rate” value is listed as “+16 Δ beats/min” and the “Changes in systemic blood pressure” value was -11.7 Δ mmHg. In data set [4] (setting [10]), this molecule gave an LD50 of 220 mg/kg.

As for `Clc1ccc(C=CCN2CCc3ncccc3C2)cc1Cl` [Compound 71], the change in vivo at 1 mg in data set [1] came out at 116%. In data set [2], the change in vivo at 1 mg/kg amounted to 44.4%, the “Changes in heart rate” value is given as “+40 Δ beats/min” and the “Changes in systemic blood pressure” value is recorded as -38.3 Δ mmHg. In data set [4] (setting [10]), this molecule returned an LD50 of 199 mg/kg.

In the case of `Cc1ccc(C)c(C=CCN2CCc3ncccc3C2)c1` [Compound 72], in data set [1], the change in vivo at 1 mg came to 92%. In data set [2], the change in vivo at 1 mg/kg amounted to 40%, the “Changes in heart rate” value is “+48 Δ beats/min” and the “Changes in systemic blood pressure” value is reported as -38.3 Δ mmHg. For the same molecule, the LD50 in data set [4] (setting [10]) stood at 242 mg/kg.

For `CNCCc1ccccn1` [betahistine, reference compound], in data set [1], the change in vivo at 1 mg came to 90%. Also, the change in vivo at 1 mg/kg in data set [2] is 14.3%. Moreover, in data set [3] (6 mg/kg injected intravenously), the inhibition at 6 mg/kg was determined as 55% and the “Duration” value was determined as 5 min. For the same molecule, in data set [3] (setting [8]), the inhibition at 12 mg/kg stood at 80% and the “Duration” value turned out to be 8 min. In data set [4] (setting [9]), this molecule showed an LD50 of 864 mg/kg. Moreover, in data set [6], the “Changes in heart rate” value is on record as “+52 Δ beats/min” and the “Changes in systemic blood pressure” value is reported as -100.0 Δ mmHg.

With `OC(CCCN1CCCCC1)(c1ccccc1)c1ccccc1` [diphenidol, reference compound], in data set [3] (6 mg/kg injected intravenously), the inhibition at 6 mg/kg came out at 70% and the “Duration” value is listed as 45 min. In data set [4] (setting [9]), this molecule had an LD50 of 105 mg/kg. Moreover, the “Sleeping time of the compound treated groups expressed as percentage to that of the control group” value in data set [7] is listed as 253.7%.

For the origin of these results see patent US4308273A, “1,6-Naphthyridine derivatives, and antidinic and cerebral circulation improver containing such derivatives” (Nippon Kayaku Kabushiki Kaisha, priority 1978, dated 1981).
